Reference: ChEMBL document CHEMBL3769303, “Discovery of membrane active benzimidazole quinolones-based topoisomerase inhibitors as potential DNA-binding antimicrobial agents” (Eur J Med Chem, 2016)
≈ marks a conversion by molar mass, not a printed value.

Test system: Micrococcus luteus
Assay: Antibacterial activity against Micrococcus luteus ATCC 4698 by micro broth dilution method
Type: functional
Conditions: NCTC 2665

| Structure (SMILES) | MIC [µg/mL] |
| --- | --- |
| CCn1cc(C(=O)O)c(=O)c2cc(F)c(N3CCN(CCc4nc5ccccc5[nH]4)CC3)cc21 | 64 (≈ 138 µM) |
| CCn1cc(C(=O)O)c(=O)c2cc(F)c(N3CCN(Cc4nc5ccccc5n4Cc4ccccc4Cl)CC3)cc21 | 0.5 (≈ 0.871 µM) |
| CCn1cc(C(=O)O)c(=O)c2cc(F)c(N3CCN(Cc4nc5ccccc5n4Cc4ccc(F)cc4)CC3)cc21 | 8 (≈ 14.3 µM) |
| CCCn1c(CN2CCN(c3cc4c(cc3F)c(=O)c(C(=O)O)cn4CC)CC2)nc2ccccc21 | 8 (≈ 16.3 µM) |

Test system: Bacillus spizizenii
Assay: Antibacterial activity against Bacillus subtilis ATCC 6633 by micro broth dilution method
Type: functional
Conditions: not given

| Structure (SMILES) | MIC [µg/mL] |
| --- | --- |
| CCn1cc(C(=O)O)c(=O)c2cc(F)c(N3CCN(CCc4nc5ccccc5[nH]4)CC3)cc21 | 2 (≈ 4.31 µM) |
| CCn1cc(C(=O)O)c(=O)c2cc(F)c(N3CCN(Cc4nc5ccccc5n4Cc4ccccc4Cl)CC3)cc21 | 16 (≈ 27.9 µM) |
| CCn1cc(C(=O)O)c(=O)c2cc(F)c(N3CCN(Cc4nc5ccccc5n4Cc4ccc(F)cc4)CC3)cc21 | 8 (≈ 14.3 µM) |
| CCCn1c(CN2CCN(c3cc4c(cc3F)c(=O)c(C(=O)O)cn4CC)CC2)nc2ccccc21 | 2 (≈ 4.07 µM) |

Test system: Saccharomyces cerevisiae
Assay: Antifungal activity against Saccharomyces cerevisiae ATCC 9763 after 24 hrs by micro broth dilution method
Type: functional
Conditions: ATCC 9763, 24 h

| Structure (SMILES) | MIC80 [µg/mL] |
| --- | --- |
| CCn1cc(C(=O)O)c(=O)c2cc(F)c(N3CCN(CCc4nc5ccccc5[nH]4)CC3)cc21 | 64 (≈ 138 µM) |
| CCn1cc(C(=O)O)c(=O)c2cc(F)c(N3CCN(Cc4nc5ccccc5n4Cc4ccccc4Cl)CC3)cc21 | 1 (≈ 1.74 µM) |
| CCn1cc(C(=O)O)c(=O)c2cc(F)c(N3CCN(Cc4nc5ccccc5n4Cc4ccc(F)cc4)CC3)cc21 | 8 (≈ 14.3 µM) |
| CCCn1c(CN2CCN(c3cc4c(cc3F)c(=O)c(C(=O)O)cn4CC)CC2)nc2ccccc21 | 32 (≈ 65.1 µM) |

Test system: not listed separately
Assay: Antibacterial activity against Bacillus proteus ATCC 13315 by micro broth dilution method
Type: functional
Conditions: not given

| Structure (SMILES) | MIC [µg/mL] |
| --- | --- |
| CCn1cc(C(=O)O)c(=O)c2cc(F)c(N3CCN(CCc4nc5ccccc5[nH]4)CC3)cc21 | 16 (≈ 34.5 µM) |
| CCn1cc(C(=O)O)c(=O)c2cc(F)c(N3CCN(Cc4nc5ccccc5n4Cc4ccccc4Cl)CC3)cc21 | 4 (≈ 6.97 µM) |
| CCn1cc(C(=O)O)c(=O)c2cc(F)c(N3CCN(Cc4nc5ccccc5n4Cc4ccc(F)cc4)CC3)cc21 | 32 (≈ 57.4 µM) |
| CCCn1c(CN2CCN(c3cc4c(cc3F)c(=O)c(C(=O)O)cn4CC)CC2)nc2ccccc21 | 128 (≈ 260 µM) |

Test system: Salmonella enterica
Assay: Antibacterial activity against Salmonella enterica ATCC 14028 by micro broth dilution method
Type: functional
Conditions: not given

| Structure (SMILES) | MIC [µg/mL] |
| --- | --- |
| CCn1cc(C(=O)O)c(=O)c2cc(F)c(N3CCN(CCc4nc5ccccc5[nH]4)CC3)cc21 | 32 (≈ 69 µM) |
| CCn1cc(C(=O)O)c(=O)c2cc(F)c(N3CCN(Cc4nc5ccccc5n4Cc4ccccc4Cl)CC3)cc21 | 0.5 (≈ 0.871 µM) |
| CCn1cc(C(=O)O)c(=O)c2cc(F)c(N3CCN(Cc4nc5ccccc5n4Cc4ccc(F)cc4)CC3)cc21 | 8 (≈ 14.3 µM) |
| CCCn1c(CN2CCN(c3cc4c(cc3F)c(=O)c(C(=O)O)cn4CC)CC2)nc2ccccc21 | 16 (≈ 32.5 µM) |

Test system: Staphylococcus aureus
Assay: Antibacterial activity against Staphylococcus aureus ATCC 25923 by micro broth dilution method
Type: functional
Conditions: not given

| Structure (SMILES) | MIC [µg/mL] |
| --- | --- |
| CCn1cc(C(=O)O)c(=O)c2cc(F)c(N3CCN(CCc4nc5ccccc5[nH]4)CC3)cc21 | 64 (≈ 138 µM) |
| CCn1cc(C(=O)O)c(=O)c2cc(F)c(N3CCN(Cc4nc5ccccc5n4Cc4ccccc4Cl)CC3)cc21 | 8 (≈ 13.9 µM) |
| CCn1cc(C(=O)O)c(=O)c2cc(F)c(N3CCN(Cc4nc5ccccc5n4Cc4ccc(F)cc4)CC3)cc21 | 8 (≈ 14.3 µM) |
| CCCn1c(CN2CCN(c3cc4c(cc3F)c(=O)c(C(=O)O)cn4CC)CC2)nc2ccccc21 | 256 (≈ 521 µM) |

Test system: Aspergillus flavus
Assay: Antifungal activity against Aspergillus flavus ATCC 204304 after 24 hrs by micro broth dilution method
Type: functional
Conditions: ATCC 204304, 24 h

| Structure (SMILES) | MIC80 [µg/mL] |
| --- | --- |
| CCn1cc(C(=O)O)c(=O)c2cc(F)c(N3CCN(CCc4nc5ccccc5[nH]4)CC3)cc21 | 32 (≈ 69 µM) |
| CCn1cc(C(=O)O)c(=O)c2cc(F)c(N3CCN(Cc4nc5ccccc5n4Cc4ccccc4Cl)CC3)cc21 | 0.5 (≈ 0.871 µM) |
| CCn1cc(C(=O)O)c(=O)c2cc(F)c(N3CCN(Cc4nc5ccccc5n4Cc4ccc(F)cc4)CC3)cc21 | 16 (≈ 28.7 µM) |
| CCCn1c(CN2CCN(c3cc4c(cc3F)c(=O)c(C(=O)O)cn4CC)CC2)nc2ccccc21 | 32 (≈ 65.1 µM) |

Test system: Escherichia coli
Assay: Antibacterial activity against Escherichia coli DH52 by micro broth dilution method
Type: functional
Conditions: not given

| Structure (SMILES) | MIC [µg/mL] |
| --- | --- |
| CCn1cc(C(=O)O)c(=O)c2cc(F)c(N3CCN(CCc4nc5ccccc5[nH]4)CC3)cc21 | 32 (≈ 69 µM) |
| CCn1cc(C(=O)O)c(=O)c2cc(F)c(N3CCN(Cc4nc5ccccc5n4Cc4ccccc4Cl)CC3)cc21 | 2 (≈ 3.48 µM) |
| CCn1cc(C(=O)O)c(=O)c2cc(F)c(N3CCN(Cc4nc5ccccc5n4Cc4ccc(F)cc4)CC3)cc21 | 32 (≈ 57.4 µM) |
| CCCn1c(CN2CCN(c3cc4c(cc3F)c(=O)c(C(=O)O)cn4CC)CC2)nc2ccccc21 | 32 (≈ 65.1 µM) |

Test system: Pseudomonas aeruginosa
Assay: Antibacterial activity against Pseudomonas aeruginosa ATCC 27853 by micro broth dilution method
Type: functional
Conditions: not given

| Structure (SMILES) | MIC [µg/mL] |
| --- | --- |
| CCn1cc(C(=O)O)c(=O)c2cc(F)c(N3CCN(CCc4nc5ccccc5[nH]4)CC3)cc21 | 32 (≈ 69 µM) |
| CCn1cc(C(=O)O)c(=O)c2cc(F)c(N3CCN(Cc4nc5ccccc5n4Cc4ccccc4Cl)CC3)cc21 | 1 (≈ 1.74 µM) |
| CCn1cc(C(=O)O)c(=O)c2cc(F)c(N3CCN(Cc4nc5ccccc5n4Cc4ccc(F)cc4)CC3)cc21 | 8 (≈ 14.3 µM) |
| CCCn1c(CN2CCN(c3cc4c(cc3F)c(=O)c(C(=O)O)cn4CC)CC2)nc2ccccc21 | 32 (≈ 65.1 µM) |

Test system: Escherichia coli
Assay: Antibacterial activity against Escherichia coli JM109 by micro broth dilution method
Type: functional
Conditions: not given

| Structure (SMILES) | MIC [µg/mL] |
| --- | --- |
| CCn1cc(C(=O)O)c(=O)c2cc(F)c(N3CCN(CCc4nc5ccccc5[nH]4)CC3)cc21 | 32 (≈ 69 µM) |
| CCn1cc(C(=O)O)c(=O)c2cc(F)c(N3CCN(Cc4nc5ccccc5n4Cc4ccccc4Cl)CC3)cc21 | 16 (≈ 27.9 µM) |
| CCn1cc(C(=O)O)c(=O)c2cc(F)c(N3CCN(Cc4nc5ccccc5n4Cc4ccc(F)cc4)CC3)cc21 | 32 (≈ 57.4 µM) |
| CCCn1c(CN2CCN(c3cc4c(cc3F)c(=O)c(C(=O)O)cn4CC)CC2)nc2ccccc21 | 128 (≈ 260 µM) |

Test system: Staphylococcus aureus
Assay: Antibacterial activity against methicillin-resistant Staphylococcus aureus N315 by micro broth dilution method
Type: functional
Conditions: not given

| Structure (SMILES) | MIC [µg/mL] |
| --- | --- |
| CCn1cc(C(=O)O)c(=O)c2cc(F)c(N3CCN(CCc4nc5ccccc5[nH]4)CC3)cc21 | 16 (≈ 34.5 µM) |
| CCn1cc(C(=O)O)c(=O)c2cc(F)c(N3CCN(Cc4nc5ccccc5n4Cc4ccccc4Cl)CC3)cc21 | 0.125 (≈ 0.218 µM) |
| CCn1cc(C(=O)O)c(=O)c2cc(F)c(N3CCN(Cc4nc5ccccc5n4Cc4ccc(F)cc4)CC3)cc21 | 16 (≈ 28.7 µM) |
| CCCn1c(CN2CCN(c3cc4c(cc3F)c(=O)c(C(=O)O)cn4CC)CC2)nc2ccccc21 | 16 (≈ 32.5 µM) |

Test system: not listed separately
Assay: Antifungal activity against Candida mycoderma ATCC 9888 after 24 hrs by micro broth dilution method
Type: functional
Conditions: Candida vini

| Structure (SMILES) | MIC80 [µg/mL] |
| --- | --- |
| CCn1cc(C(=O)O)c(=O)c2cc(F)c(N3CCN(CCc4nc5ccccc5[nH]4)CC3)cc21 | 64 (≈ 138 µM) |
| CCn1cc(C(=O)O)c(=O)c2cc(F)c(N3CCN(Cc4nc5ccccc5n4Cc4ccccc4Cl)CC3)cc21 | 0.5 (≈ 0.871 µM) |
| CCn1cc(C(=O)O)c(=O)c2cc(F)c(N3CCN(Cc4nc5ccccc5n4Cc4ccc(F)cc4)CC3)cc21 | 32 (≈ 57.4 µM) |
| CCCn1c(CN2CCN(c3cc4c(cc3F)c(=O)c(C(=O)O)cn4CC)CC2)nc2ccccc21 | 2 (≈ 4.07 µM) |

Test system: Candida albicans
Assay: Antifungal activity against Candida albicans ATCC 10231 after 24 hrs by micro broth dilution method
Type: functional
Conditions: ATCC 10231, 24 h

| Structure (SMILES) | MIC80 [µg/mL] |
| --- | --- |
| CCn1cc(C(=O)O)c(=O)c2cc(F)c(N3CCN(CCc4nc5ccccc5[nH]4)CC3)cc21 | 64 (≈ 138 µM) |
| CCn1cc(C(=O)O)c(=O)c2cc(F)c(N3CCN(Cc4nc5ccccc5n4Cc4ccccc4Cl)CC3)cc21 | 4 (≈ 6.97 µM) |
| CCn1cc(C(=O)O)c(=O)c2cc(F)c(N3CCN(Cc4nc5ccccc5n4Cc4ccc(F)cc4)CC3)cc21 | 8 (≈ 14.3 µM) |
| CCCn1c(CN2CCN(c3cc4c(cc3F)c(=O)c(C(=O)O)cn4CC)CC2)nc2ccccc21 | 32 (≈ 65.1 µM) |

Test system: Shigella dysenteriae
Assay: Antibacterial activity against Shigella dysenteriae by micro broth dilution method
Type: functional
Conditions: not given

| Structure (SMILES) | MIC [µg/mL] |
| --- | --- |
| CCn1cc(C(=O)O)c(=O)c2cc(F)c(N3CCN(CCc4nc5ccccc5[nH]4)CC3)cc21 | 128 (≈ 276 µM) |
| CCn1cc(C(=O)O)c(=O)c2cc(F)c(N3CCN(Cc4nc5ccccc5n4Cc4ccccc4Cl)CC3)cc21 | 16 (≈ 27.9 µM) |
| CCn1cc(C(=O)O)c(=O)c2cc(F)c(N3CCN(Cc4nc5ccccc5n4Cc4ccc(F)cc4)CC3)cc21 | 16 (≈ 28.7 µM) |
| CCCn1c(CN2CCN(c3cc4c(cc3F)c(=O)c(C(=O)O)cn4CC)CC2)nc2ccccc21 | 32 (≈ 65.1 µM) |

Test system: Cyberlindnera jadinii
Assay: Antifungal activity against Candida utilis ATCC 9950 after 24 hrs by micro broth dilution method
Type: functional
Conditions: Williopsis jadinii, ATCC 9950, 24 h

| Structure (SMILES) | MIC80 [µg/mL] |
| --- | --- |
| CCn1cc(C(=O)O)c(=O)c2cc(F)c(N3CCN(CCc4nc5ccccc5[nH]4)CC3)cc21 | 32 (≈ 69 µM) |
| CCn1cc(C(=O)O)c(=O)c2cc(F)c(N3CCN(Cc4nc5ccccc5n4Cc4ccccc4Cl)CC3)cc21 | 2 (≈ 3.48 µM) |
| CCn1cc(C(=O)O)c(=O)c2cc(F)c(N3CCN(Cc4nc5ccccc5n4Cc4ccc(F)cc4)CC3)cc21 | 8 (≈ 14.3 µM) |
| CCCn1c(CN2CCN(c3cc4c(cc3F)c(=O)c(C(=O)O)cn4CC)CC2)nc2ccccc21 | 32 (≈ 65.1 µM) |
